The source of these data is PMC5754397, “Population pharmacokinetics of nintedanib, an inhibitor of tyrosine kinases, in patients with non-small cell lung cancer or idiopathic pulmonary fibrosis” (Cancer Chemotherapy and Pharmacology, 2017).

Data set [1] has as its system target receptors. Set-up: method as in PMID 21204634. To be noted: cited from earlier work.
Data set [2] is described as follows: Population pharmacokinetic analysis in healthy subjects after intravenous administration of nintedanib (one-compartment model). The data set is classed as in vivo, human. To be noted: healthy subjects, intravenous nintedanib; estimate (RSE%). The source says: The pharmacokinetic profile of BIBF 1202 was best described by a one-compartment model with first-order elimination (see Online Resource Fig. S1 for model structure). To account for formation of BIBF 1202 in the intestine or via hepatic first-pass effect, a first-order absorption with lag time (ALAG2) was implemented as per nintedanib absorption. The relative bioavailability (F2) and the absorption-rate constant (k a2) were implemented as functions of nintedanib F1 and k a, respectively (substantial drop in OFV as compared to a model, where F2 and k a2 were estimated independently of F1 and k a). This parametrization accounted for correlations between nintedanib and BIBF 1202 parameters and replaced the full variance–covariance matrix which was not applied due to the sequential modeling approach used. The rate of formation of BIBF 1202 (k met) during nintedanib systemic elimination was accounted by defining it as a function of nintedanib clearance: k met = CL/V2*ffM, where CL and V2 denote the clearance and central volume of distribution of nintedanib respectively, and ffM denotes the proportion of the nintedanib elimination resulting in BIBF 1202 formation. Due to the lack of data for BIBF 1202 given as an intravenous (IV) infusion, several parameter estimates were not identifiable (ffM, BIBF 1202 apparent volume of distribution [V3/F]) and were, therefore, fixed. The value for ffM was derived from pharmacokinetic data after IV administration of nintedanib (Online Resource Table S4) and the ratio of V3/F–V2/F was fixed based on information observed in rats. […] In addition to the (inter-individual) variability of F2 induced by the variability in F1 (F2 being proportional to F1), additional IIV could be implemented for F2.
Table S4 Structural parameters for nintedanib and BIBF 1202 from a population pharmacokinetic analysis based on healthy subjects (n=23^a, 372 observations) after intravenous administration of nintedanib
One subject (3 mg dose) was excluded from analysis due to increasing plasma concentrations of nintedanib after end of infusion

For data set [3], the system named is mouse xenograft models. Further details: method as in ref 7 = [7]; 7. European Medicines Agency (2014) Committee for Medicinal Products for Human Use (CHMP) Assessment Report for Vargatef (nintedanib), 25 September 2014. http://www.ema.europa.eu/docs/en_GB/document_l. The settings on record: cited from earlier work.
The test system of data set [4] is VEGF or bFGF stimulation of human umbilical vascular endothelial cells. Further details: method as in Boehringer Ingelheim unpublished data, 14. The settings on record: VEGF or bFGF stimulation of HUVEC; ref Boehringer Ingelheim unpublished data, 14; cited from earlier work.
Details of data set [5]: method as in PMID 21204634. To be noted: dedicated ADME study; cited from earlier work.
The subject of data set [6] is PDGFRα. Further details: method as in Boehringer Ingelheim unpublished data, 14. The settings on record: PDGFRα stimulation of primary lung fibroblasts; ref Boehringer Ingelheim unpublished data, 14; cited from earlier work.
Data set [7] concerns PDGFRβ. Set-up: method as in Boehringer Ingelheim unpublished data, 14. To be noted: PDGFRβ stimulation of primary lung fibroblasts; ref Boehringer Ingelheim unpublished data, 14; cited from earlier work.
The nature of data set [8]: Population pharmacokinetic model of metabolite BIBF 1202 plasma concentrations in patients with NSCLC or IPF treated with nintedanib. The data set is classed as in vivo, human. An excerpt:
This population pharmacokinetic analysis pooled data from nintedanib treatment in four clinical studies; 1 Phase II (n = 73) and two Phase III trials in patients with NSCLC (LUME-Lung 1 (n = 652) and LUME-Lung 2 (n = 347)) and one Phase II trial (TOMORROW, n = 343) in patients with IPF [11] (data from IPF Phase III trials were not available at time of analysis). An overview of these studies is provided in Online Resource Table S1. In the NSCLC Phase II trial, patients with locally advanced or metastatic relapsed NSCLC in whom first- or second line platinum-based chemotherapy had failed and were randomized to nintedanib 150 or 250 mg twice-daily. Treatment continued until disease progression or intolerable toxicity. In the NSCLC Phase III trials, nintedanib 200 mg twice-daily or placebo was given in repeated 21 day treatment cycles in combination with single infusions of docetaxel 75 mg/m^2 (LUME-Lung 1 trial) or pemetrexed 500 mg/m^2 (LUME-Lung 2 trial), administered on day 1 of each cycle. Treatment cycles were continued until disease progression or intolerable toxicity. In the Phase II trial in patients with IPF [11], patients were randomized to a 52-week treatment period with one of the four doses of nintedanib (50 mg once or twice-daily, 100, 150 mg twice-daily) or placebo. In all four trials, dose reductions and interruptions were allowed to manage adverse events. All studies were conducted in accordance with the Declaration of Helsinki and with approval of the local ethics committees. Written informed consent was obtained from all patients before study entry.
Blood sampling schema for measurement of nintedanib plasma concentrations varied. For all trials, at least two pre-dose and two post-dose blood samples were scheduled during treatment (see Online Resource Table S1). In addition, more extensive sampling was performed in the two Phase II trials. Nintedanib and BIBF 1202 plasma concentrations were analyzed by validated liquid chromatography–mass spectrometry (HPLC–MS/MS) methods. The calibration curves covered the range 0.5–500 ng/mL for nintedanib and 1–1000 ng/mL for BIBF 1202 in undiluted plasma samples and were linear over this range.
The population pharmacokinetic analysis was performed using non-linear mixed-effects modeling techniques (NONMEM, version VI 2.0, ICON Development Solutions, Ellicott City, Maryland, USA). The first-order conditional estimation algorithm with interaction was used. Data processing, diagnostic plots, and calculation of descriptive statistics were performed using R version 2.12.1 (http://www.rproject.org) and SAS version 9.2 (SAS Institute Inc, Cary, NC, USA). Bootstrap analysis was performed using Perl-speaks-NONMEM, version 3.5.3 [24, 25].
Using fixed pharmacokinetic parameter estimates from the nintedanib base model (typical values plus empirical Bayes estimates of individual η), the base model of BIBF 1202 was developed. Plasma concentrations of nintedanib and BIBF 1202 were reported in nM to account for differences in their molecular weight.
The covariate analysis for BIBF 1202 was based on the fixed pharmacokinetic parameters of the final nintedanib model and base model of BIBF 1202 and followed the same principles described for nintedanib (see Online Resource Table S3).
Model evaluation for BIBF 1202 was analogous to nintedanib, with the exception of the non-parametric bootstrap analysis.
Finally, after the sequential pharmacokinetic analysis for nintedanib and BIBF 1202, the parameters for the final models of nintedanib and BIBF 1202 were estimated simultaneously.
To illustrate individual covariate effects, the change in the median steady-state nintedanib and BIBF 1202 plasma concentration–time profiles were compared to the exposure in a typical patient. The typical patient was defined by baseline medians (continuous covariate) and modes (categorical covariate) of the respective covariates in the total analyzed population. […]

[9] abbreviates: final BIBF 1202 model (sequential fit), estimate (RSE%).
Where [10] appears, read: final BIBF 1202 model (sequential fit), reference Caucasian/Black origin = 1.00, estimate (RSE%).

Values joined by “and” are separate entries in the source; they are usually repeats but may differ in a detail not shown here. Equal values may be shown once. Marks after values point to notes of the source that are not given here. A value given as a limit tells only on which side of the number the result lay.

As for `CN1CCN(CC(=O)N(C)c2ccc(N/C(=C3\C(=O)Nc4cc(C(=O)O[C@@H]5O[C@H](C(=O)O)[C@@H](O)[C@H](O)[C@H]5O)ccc43)c3ccccc3)cc2)CC1` [BIBF 1202 glucuronide], the “in vitro activity at the target receptors” value in data set [1] was “did not show in vitro activity”.
For the compound `CN1CCN(CC(=O)N(C)c2ccc(N/C(=C3\C(=O)Nc4cc(C(=O)O)ccc43)c3ccccc3)cc2)CC1` [BIBF 1202], the “CL2, total body clearance for BIBF 1202” value in data set [2] is on record as 0.513 (17.0) L/h. Also, the “efficacy in mouse xenograft models” value in data set [3] was “not effective”. In addition, the “lower potency compared to nintedanib” value in data set [4] was 9–10 fold. In data set [5], the “metabolic ratio for AUC (BIBF 1202 to nintedanib)” value is on record as roughly 1 and the “metabolic ratio for Cmax (BIBF 1202 to nintedanib)” value is recorded as roughly 1. Moreover, the “lower potency compared to nintedanib” value in data set [6] is reported as 265 fold. The “lower potency compared to nintedanib” value in data set [7] was 607 fold. The “changes in BIBF 1202 exposure by ECOG performance status and LDH” value in data set [8] (covariates influencing BIBF 1202 but not nintedanib exposure) is given as less than 30%. In data set [8] (final BIBF 1202 model (sequential fit), estimate (RSE% on the variance scale)), the “IIV in F2” value was 56.7 (8.60^f) CV% and 56.7 (8.60^e) CV%. In addition, in data set [8] (setting [9]), the “CL2/F (θCL2), apparent total body clearance for BIBF 1202” value is 7.05 (6.37) L/h; the “F2/F1 (θF2F1), ratio of relative bioavailabilities BIBF 1202 to nintedanib” value was 0.0110 (11.3); the “covariate effect on F2, θLDH_Breakpoint (breakpoint for LDH)” value was 688 (22.0) U/L; the “covariate effect on F2, θWT” value is -0.848 (12.2). Further, in data set [8] (setting [9]), the “ka2/ka (θka2ka), ratio of absorption rate constants BIBF 1202 to nintedanib” value is recorded as 1.47 (8.16). For the same compound, in data set [8] (final BIBF 1202 model (sequential fit), hockey-stick function, estimate (RSE%)), the “covariate effect on F2, θLDH (coefficient for LDH [U/L])” value is listed as 0.000656 (22.1). In data set [8] (setting [10]), the “covariate effect on F2, θEthnicity: Asian origin (except for Indian)” value was 1.20 (4.83) and the “covariate effect on F2, θEthnicity: Indian origin” value was 1.90 (13.5). Also, in data set [8] (final BIBF 1202 model (sequential fit), reference ECOG=0 = 1.00, estimate (RSE%)), the “covariate effect on F2, θECOG: ECOG≥1” value was 1.16 (4.16). Further, the “covariate effect on ka2, θTrial: NSCLC Phase II and IPF Phase II” value in data set [8] (final BIBF 1202 model (sequential fit), reference LUME-Lung 1 and LUME-Lung 2 = 1.00, estimate (RSE%)) is 0.756 (7.72). In addition, the “covariate effect on ka2, θNSCLC_histology: non-adenocarcinoma” value in data set [8] (final BIBF 1202 model (sequential fit), reference adenocarcinoma = 1.00, estimate (RSE%)) is on record as 1.36 (8.90). Moreover, the “share of BIBF 1202 in plasma formed systemically” value in data set [8] (final model, systemic formation rate fixed to the value from the IV study) is reported as “about 8%”. Further, in data set [8] (pcQPC of the final BIBF 1202 model, 95% prediction interval of simulated medians, steady state), the “upper limit of the predicted 2 h post-dose concentration for Indian patients” value was 88 ng/mL. Moreover, in data set [8] (simultaneous estimation), the “F2/F1 (θF2F1)” value is 0.0153 (–); the “IIV in F2” value is on record as 47.9 (–) CV%; the “covariate effect on F2, θECOG: ECOG≥1” value was 1.13 (–); the “covariate effect on F2, θEthnicity: Asian origin (except for Indian)” value is 1.19 (–). In addition, in data set [8] (simultaneous estimation), the “covariate effect on F2, θEthnicity: Indian origin” value was 1.81 (–); the “covariate effect on F2, θLDH (coefficient for LDH [U/L])” value is listed as 0.00064 (–); the “covariate effect on F2, θLDH_Breakpoint (breakpoint for LDH)” value was 683 (–) U/L; the “covariate effect on F2, θWT” value is given as -0.791 (–). Besides, in data set [8] (simultaneous estimation), the “covariate effect on ka2, θNSCLC_histology: non-adenocarcinoma” value is recorded as 1.24 (–); the “covariate effect on ka2, θTrial: NSCLC Phase II and IPF Phase II” value is recorded as 0.864 (–); the “ka2/ka (θka2ka)” value is reported as 1.14 (–). Moreover, in data set [8] (simultaneous estimation of nintedanib and BIBF 1202 models, RSE not available), the “CL2/F (θCL2)” value is 9.68 (–) L/h.
